Key:
[1] = DPPH radical-scavenging activity; assay type: physicochemical; parameters: AA (%), percentage of antioxidant activity: concentration or dose not given beside the values; settings: mean ± SD, n = 2
Procedure: The antioxidant activity of the representative compounds of the two series (namely, acylhydrazones 10b, 11a, 11d, 12d, 13d, and amides 14, 22) was measured in vitro using the 2,2-diphenyl-1-picrylhydrazyl (DPPH) assay. The results were calculated as Trolox equivalent and expressed as a percentage of antioxidant activity (AA) (Table 3). […] Derivatives 10b and 12d were endowed with the highest antioxidant activity, thus highlighting the relevance of both pyrazole N1 and acylhydrazone substituents on compounds’ radical scavenging properties.
Compounds 10b, 11a, 11d, 12d, 13d, 14, and 22 (ca. 3 mg) were dissolved in DMSO (1 mL), and then 100 µL of this solution was mixed with 3.9 mL of DPPH methanol solution (65 µM). Absorbance was measured at 517 nm after reacting for 30 min in the dark. The linear calibration curve was obtained using Trolox standards (ranging between 20 and 200 mg/L, R^2 = 0.9955). The result was calculated as Trolox equivalent in mg/L, and the percentage of antioxidant activity (AA%) was calculated from the ratio of decreasing absorbance of sample solution (A0 − As) to absorbance of blank DPPH solution (A0), as expressed in Equation (1). (1) AA%=A0−As/A0×100
All analyses were carried out in duplicate (n = 2), and values are given as means ± standard deviation (SD).

NCI-H522 = assay: NCI screening, Non-Small Cell Lung Cancer; assay type: cell-based; settings: 10 µM
Procedure: (§1) In addition, 11a and 17 (representative compounds of the acylhydrazone and amide series) were selected by the National Cancer Institute (NCI, Germantown, MD, USA) and tested at a fixed concentration of 10 µM against a panel of fifty-nine different cancer cell lines, including highly metastatic tumors (Table 2).

NCI-H460 = assay: NCI screening, Non-Small Cell Lung Cancer; assay type: cell-based; settings: 10 µM
Procedure: as §1

HL-60(TB) = assay: NCI screening, Leukemia; assay type: cell-based; settings: 10 µM
Procedure: as §1

K-562 = assay: NCI screening, Leukemia; assay type: cell-based; settings: K-562, Leukemia; 10 µM
Procedure: as §1

SR = assay: NCI screening, Leukemia; assay type: cell-based; settings: 10 µM
Procedure: as §1

MDA-MB-435 = assay: NCI screening, Melanoma; assay type: cell-based; settings: MDA-MB-435, Melanoma; 10 µM; negative values indicate lethality
Procedure: as §1

M14 = assay: NCI screening, Melanoma; assay type: cell-based; settings: 10 µM
Procedure: as §1

LOX IMVI = assay: NCI screening, Melanoma; assay type: cell-based; settings: 10 µM
Procedure: as §1

HT29 = assay: NCI screening, Colon Cancer; assay type: cell-based; settings: 10 µM
Procedure: as §1

HCT-15 = assay: NCI screening, Colon Cancer; assay type: cell-based; settings: HCT-15, Colon Cancer; 10 µM
Procedure: as §1

HCT-116 = assay: NCI screening, Colon Cancer; assay type: cell-based; settings: HCT-116, Colon Cancer; 10 µM
Procedure: as §1

SW-620 = assay: NCI screening, Colon Cancer; assay type: cell-based; settings: SW-620, Colon Cancer; 10 µM
Procedure: as §1

MDA-MB-468 = assay: NCI screening, Breast Cancer; assay type: cell-based; settings: MDA-MB-468, Breast Cancer; 10 µM; negative values indicate lethality
Procedure: as §1

HS 578T = assay: NCI screening, Breast Cancer; assay type: cell-based; settings: 10 µM
Procedure: as §1

MCF7 = assay: NCI screening, Breast Cancer; assay type: cell-based; settings: 10 µM
Procedure: as §1

SMILES | AA (%), percentage of antioxidant activity [1] [%] | DPPH (%) [1] [%] | Growth Percentage (%) (NCI-H522) | Growth Percentage (%) (NCI-H460) | Growth Percentage (%) (HL-60(TB)) | Growth Percentage (%) (K-562) | Growth Percentage (%) (SR) | Growth Percentage (%) (MDA-MB-435) | Growth Percentage (%) (M14) | Growth Percentage (%) (LOX IMVI) | Growth Percentage (%) (HT29) | Growth Percentage (%) (HCT-15) | Growth Percentage (%) (HCT-116) | Growth Percentage (%) (SW-620) | Growth Percentage (%) (MDA-MB-468) | Growth Percentage (%) (HS 578T) | Growth Percentage (%) (MCF7)
COc1ccc(/C=N/NC(=O)c2c(N)nn(C)c2Nc2ccccc2)cc1 [11a, (E)-3-amino-N′-(4-methoxybenzylidene)-1-methyl-5-(phenylamino)-1H-pyrazole-4-carbohydrazide] | 25.56 ± 2.44 | 74.44 ± 2.44 | – | – | – | – | – | – | – | – | – | – | – | – | – | – | –
CCOC(=O)c1c(NC(=O)C2CC2)nn(C)c1Nc1ccccc1 [compound 17, Ethyl 3-(cyclopropanecarboxamido)-1-methyl-5-(phenylamino)-1H-pyrazole-4-carboxylate] | – | – | 97.23 | 101.02 | 96.44 | 96.41 | 94.23 | 101.76 | 102.31 | 102.01 | 99.47 | 96.95 | 104.12 | 94.82 | 102.11 | 96.86 | 92.37

— publication PMC11083148, “Structure–Activity Relationship Studies on Highly Functionalized Pyrazole Hydrazones and Amides as Antiproliferative and Antioxidant Agents” (International Journal of Molecular Sciences, 2024)
